# According to patent US7029918B2, “Water-soluble derivatives of lipophilic drugs” (Roche Diagnostics Operations, Inc., priority 2002, dated 2006):
# Where “and” joins values, the source holds several entries; their conditions need not be identical. Equal entries are not always repeated.
# What was measured:
# [1] = cited from earlier work
# [2] = Heat stress stability of urine standard solutions, ABUSCREEN ONLINE Benzodiazepines assay; details: for stability in urine by ONLINE assay: up to 4 weeks, 4° C. or 45° C., pH 6.4 or 7.4, 100 to 200 ng/mL
# Method: (§1) Urine standard solutions were prepared using pooled, filtered, normal human urine containing 0.09 percent sodium azide. […] Each of the drug stock solutions was added analytically to the assigned aliquot of urine pool. Final drug concentrations in the solutions were determined by GC-MS analyses performed at ELSOHLY LABORATORIES (Oxford, MS).
# (§2) The stability of the above standard solutions were evaluated using three different analytical technologies: (1) GCIMS (Gas Chromatography/Mass Spectrometry) analysis, (2) ABUSCREEN ONLINE Benzodiazepines Immunoassay, and (3) HPLC (High Pressure Liquid Chromatography) analysis.
# The heat stress stability study of the water-soluble derivative 2 was evaluated using ABUSCREEN ONLINE Benzodiazepines assay. […] (in neutral and acidic negative urine pools, 2 concentrations for each urinary pH).
# [3] = Heat stress stability of urine standard solutions, GC/MS quantification; type: physicochemical; details: for change of concentration in urine: 45° C. and 55° C.
# Method: as §1, §2
# The standard solutions were stored at various temperatures, including 4° C., 45° C. and 55° C., and tested at different time intervals.
# [4] = Method: Water-soluble derivative 2 was spiked in certified drug-free human urine 100 ng/mL) and the resulting solution was divided into two portions: one was stored at 4° C. and the other stressed at 45° C. After three months, both solutions were analyzed for the concentration of water-soluble derivative 2 by the following procedure. A volume (between 2.5 to 10 mL) of the urine solutions was passed through an affinity column packed with anti-benzodiazepines antiserum-coated latex beads (0.8 μm). After it was washed with a 50 mM, pH 6.1 MES (4-morpholineethane […]) buffer, the column was eluted with methanol. The methanol eluant was then evaporated and the residue reconstituted in 404 μL of MES buffer. […] The column was eluted with a gradient generated between a 50 mM, pH 6.8 ammonium acetate buffer and acetonitrile (Table C).
# [5] = test system: antibody (competition with benzodiazepine-BSA conjugate 7); assay: Immunochromatographic assay of benzodiazepines (nitrocellulose test strip, competitive); type: binding
# Method: In the absence of lipophilic drug in a sample being analyzed, the drug conjugate can bind to the antibody, and this binding can be measured. When a the lipophilic drug is present in the sample, the drug competes with the drug conjugate for binding to the antibody. Antibody that is bound to the liphophilic drug no longer contributes to the binding measurement. Lipophilic drug content is determined relative to the values obtained for known concentrations of the standard compound (Adler, F. L. J. Immunol. 1971, 106(6):1684–1685. See also Bates, M. Amer. Acad. Forensic Sci. 1991, 37(6):1000).
# The benzodiazepine-BSA conjugate was prepared in a similar manner as described in Example 6, but treating with BSA rather than BTG. The product was prepared and stored in 100 mM potassium phosphate as 10 mg/mL solution with 0.05% sodium azide as preservative Example 9-Immunochromatographic assay of benzodiazepines using water-soluble derivative 2 as calibrator The immunochromatographic assay was conducted using a nitrocellulose-based test strip as described in detail in U.S. Pat. No. 5,770,458. Mylar backed large pore size nitrocellulose (8–12 micron) was cut into pieces of 15 cm in length and 5 cm in width. A solution of the benzodiazepine-BSA conjugate 7 (about 5 mg/mL) and anti-BSA monoclonal antibody (about 2 mg/mL), both in 50 mM potassium phosphate buffer pH 7.5, were loaded onto IVEK CORP. (North Springfield, Vt.) […] 2000™ system. The solutions were dispensed at the rate 1 μl/cm onto nitrocellulose at a distance of 2 cm and 1 cm, respectively, from the 15 cm side. The nitrocellulose segments were allowed to dry for about 30 min. at 37° C., and then were blocked with polyvinyl alcohol (PVA, m.w. 13,000–23,000) solution in 20 mM TRIS, pH 8, for 30 min. at room temperature. The segments were then rinsed in water and dried.
# The same nitrocellulose as described above in this example was used as a separate membrane for microparticles (top membrane). The construction of the two-membrane strip configuration was carried out as described in detail in U.S. Pat. No. 5,770,458. In brief, the top membrane was blocked and washed using the same protocol as the main membrane. The top membrane containing the appropriate amount of microparticles was laminated to the main membrane with ADHESIVE […] INC. (Glen Rock, Pa.) adhesive mylar and the segment was then cut into 5 mm wide strips. The sample pad and sink pad were placed respectively at the beginning and terminal ends of the strips. Cellulose from BIORAD LABORATORIES (Hercules, Calif.) (gel blotter) was used for both the sample receiving pads and the sink pads. The calibration curve was obtained by adding solutions containing predetermined amounts of drug in urine to the sample receiving pad or by dipping the sample receiving pad of the membrane strip in the solutions. Various predetermined concentrations of water-soluble derivative 2 were used to prepare the standards in urine. The signal strength is determined as follows: 2.5 to 3.0=dark blue, 1.5 to 2.0-medium blue, 1.0=light blue, 0.5=barely perceivable color and 0=colorless. When the strip read colorless, a complete inhibition is achieved and the sample is indicated to contain 200 ng/mL of the drug used to prepare the “standards”.
# [6] = in water; 'it is believed'
# [7] = test system: antibody of ABUSCREEN ONLINE Benzodiazepines assay; details: ONLINE immunoassay
# Excerpt: ABUSCREEN ONLINE reagents and Calibration Pack were obtained from ROCHE DIAGNOSTICS CORPORATION, INC. […] ABUSCREEN ONLINE Benzodiazepines assay was run either on a ROCHE MIRA analyzer in a semi-quantitative mode, or using a ROCHE COBAS INTEGRA 700 analyzer in a semi-quantitative mode, according to the I manufacturer's instructions.
# [8] = urine pH 7.4, higher-concentration standard
# [9] = urine pH 7.4, lower-concentration standard
# [10] = urine pH 6.4, higher-concentration standard
# [11] = urine pH 6.4, lower-concentration standard
# [12] = urine, scale 2.5 to 3.0 dark blue, 1.5 to 2.0 medium blue, 1.0 light blue, 0.5 barely perceivable, 0 colorless
smiles,measurement,setting,value
CCN(CC)CCN1C(=O)CN=C(c2ccccc2F)c2cc(Cl)ccc21 [Fluazepam],solubility in water,[1],only slight solubility in water
"O=C1CN=C(c2ccccc2)c2cc(Cl)ccc2N1 [Nordiazepam, reference compound]","ONLINE assay concentration, 4° C., Day 0",[2]; [8],271 ng/mL
same,"ONLINE assay concentration, 4° C., Week 2",[2]; [8],272 ng/mL
same,"ONLINE assay concentration, 4° C., Week 4",[2]; [8],252 ng/mL
same,"ONLINE assay concentration, 45° C., Day 0",[2]; [8],271 ng/mL
same,"ONLINE assay concentration, 4° C., Day 0",[2]; [9],139 ng/mL
same,"ONLINE assay concentration, 4° C., Week 2",[2]; [9],140 ng/mL
same,"ONLINE assay concentration, 4° C., Week 4",[2]; [9],134 ng/mL
same,"ONLINE assay concentration, 45° C., Day 0",[2]; [9],139 ng/mL
"O=C1CN=C(c2ccccc2F)c2cc(Cl)ccc2N1CCNS(=O)(=O)O [Water-soluble derivative 2, 1-(2-Sulfamidoethyl)-2′-fluoro-7-chloro-1,4-benzodiazepine]","GC/MS concentration, Day 0","[3]; human urine standard solution, starting concentration",Day 0 = 171 ng/mL
same,"GC/MS value at 5 months, 4° C.","[3]; human urine, 5 months, 4° C., Day 0 = 171 ng/mL",147 ng/mL
same,"GC/MS value at 5 months, 45° C.","[3]; human urine, 5 months, 45° C., Day 0 = 171 ng/mL",150 ng/mL
same,"GC/MS value at 5 months, 55° C.","[3]; human urine, 5 months, 55° C., Day 0 = 171 ng/mL",145 ng/mL
same,GC/MS concentration after storage at 4° C.,"[3]; human urine, two weeks, 4° C.",191 ng/mL
same,GC/MS concentration after storage at 45° C.,"[3]; human urine, two weeks, 45° C.",178 ng/mL
same,GC/MS concentration after storage at 55° C.,"[3]; human urine, two weeks, 55° C.",185 ng/mL
same,change of concentration in urine,"[3]; two weeks, 4° C.",stable at all temperatures
same,change of concentration in urine,"[3]; two weeks, 4° C., listed as water-soluble benzodiazepine reference standard 2",does not change significantly
same,stability in urine by ONLINE assay,[2],stable for the evaluated time and temperatures
same,stability in urine by ONLINE assay,[2]; listed as water-soluble benzodiazepine reference standard 2,does not change significantly
same,"ONLINE assay concentration, 4° C., Day 0",[2]; [10],191 ng/mL
same,"ONLINE assay concentration, 4° C., Week 2",[2]; [10],191 ng/mL
same,"ONLINE assay concentration, 4° C., Week 4",[2]; [10],193 ng/mL
same,"ONLINE assay concentration, 45° C., Day 0",[2]; [10],191 ng/mL
same,"ONLINE assay concentration, 45° C., Week 2",[2]; [10],200 ng/mL
same,"ONLINE assay concentration, 45° C., Week 4",[2]; [10],209 ng/mL
same,"ONLINE assay concentration, 4° C., Day 0",[2]; [11],99 ng/mL
same,"ONLINE assay concentration, 4° C., Week 2",[2]; [11],97 ng/mL
same,"ONLINE assay concentration, 4° C., Week 4",[2]; [11],106 ng/mL
same,"ONLINE assay concentration, 45° C., Day 0",[2]; [11],99 ng/mL
same,"ONLINE assay concentration, 45° C., Week 2",[2]; [11],101 ng/mL
same,"ONLINE assay concentration, 45° C., Week 4",[2]; [11],109 ng/mL
same,"ONLINE assay concentration, 4° C., Day 0",[2]; [8],188 ng/mL
same,"ONLINE assay concentration, 4° C., Week 2",[2]; [8],183 ng/mL
same,"ONLINE assay concentration, 4° C., Week 4",[2]; [8],189 ng/mL
same,"ONLINE assay concentration, 45° C., Day 0",[2]; [8],188 ng/mL
same,"ONLINE assay concentration, 45° C., Week 2",[2]; [8],179 ng/mL
same,"ONLINE assay concentration, 45° C., Week 4",[2]; [8],192 ng/mL
same,"ONLINE assay concentration, 4° C., Day 0",[2]; [9],102 ng/mL
same,"ONLINE assay concentration, 4° C., Week 2",[2]; [9],92 ng/mL
same,"ONLINE assay concentration, 4° C., Week 4",[2]; [9],99 ng/mL
same,"ONLINE assay concentration, 45° C., Day 0",[2]; [9],102 ng/mL
same,"ONLINE assay concentration, 45° C., Week 2",[2]; [9],95 ng/mL
same,"ONLINE assay concentration, 45° C., Week 4",[2]; [9],98 ng/mL
same,relative stability of the stressed sample (single extraction and HPLC runs),"[4]; human urine, three months, 45° C. vs 4° C., duplicate runs",96% and 106%
same,relative stability of the stressed sample (average),"[4]; human urine, three months, area count at 45° C. divided by that at 4° C., average of duplicates",101%
same,stability at 45° C. relative to 4° C.,"[4]; urine, storage as long as 3 months",no decrease in stability
same,cross-reactivity to both Oxazepam and Nordiazepam,[5]; immunochromatographic assay,approximately 70%
same,signal strength at 50 ng/mL standard,[5]; [12],2.50 and 2.75
same,signal strength at 100 ng/mL standard,[5]; [12],2.00
same,signal strength at 200 ng/mL standard,[5]; [12],0
same,signal strength at 400 ng/mL standard,[5]; [12],0
same,aqueous solubility,[6],more than 2 mg/mL
same,cross-reactivity to both Oxazepam and Nordiazepam,[7],approximately 70%
